How the values were obtained:
Assay type in all cases: biochemical
[1] = test system: MYC; assay: In vitro transcription-translation (IVTT) assay, MYC reporter; details: IVTT assay, HeLa S3 lysate, MYC reporter, normalized sfGFP/mCherry ratio; half-log dilutions 30 μM-0.1 μM, 2 hrs at 30° C.
In short: (§1)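 Reporter: mCherry, P2A, then 3×FLAG-target peptide-sfGFP fusion, IRES-initiated; HeLa S3 lysate IVTT; cpd dilutions 30 μM−0.1 μM half-log in 100% DMSO (dilution-plate conc); DNA added last; 2 h, 30° C; PBS quench.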

[2] = test system: CCND1; assay: In vitro transcription-translation (IVTT) assay, CCND1 reporter; details: IVTT, HeLa S3 lysate, 2 hrs at 30° C.
In short: as §1

[3] = test system: MCL-1; assay: In vitro transcription-translation (IVTT) assay, MCL-1 reporter; details: IVTT, HeLa S3 lysate, 2 hrs at 30° C.; read-out: MCL1 IC50
In short: as §1

[4] = test system: CCNTB1; assay: In vitro transcription-translation (IVTT) assay, CCNTB1 reporter; details: HeLa S3 lysate, 2 hrs at 30° C.
In short: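 HeLa S3 lysate-based coupled transcription-translation reactions with reporter plasmids, compounds in half-log dilutions (30 μM−0.1 μM, in DMSO), 2 h at 30° C. sfGFP/mCherry ratio, corrected for no-DNA background, normalized to no-drug control and fitted for IC50.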

[5] = test system: cGAS; assay: In vitro transcription-translation (IVTT) assay, cGAS reporter; details: HeLa S3 lysate, 2 hrs at 30° C.
Protocol: (§2) Each preparation takes 8 cell pellets (4 ml packed volume each, approximately 1.0×10^9 cells per pellet). Thaw cell pellets from −80° C. on ice for 90 mins. Lay pellets horizontally on top of the ice and rotate every 30 mins to ensure even thawing. Once thawed, add 4 mL of cold lysis buffer to each pellet, and using a serological pipet, gently pipet up and down to break up clumps. Incubate resuspended cells in ice for an additional 30 mins (plunged into ice). During 30 min incubation, rinse and RNase-zap (Ambion) glass dounces (use loose pestle “A”), gently dry and place on ice until needed. Prepare RNase-free Eppendorf tubes for spinning and for batch storage. […]
(§3) In vitro transcription-translation assay setup: Each assay includes a master mix containing lysate and shared components, a 96-well plate containing compound titrations for testing, a 96-well DNA plate with reporter constructs to be tested, 96-well skirted PCR plates, and 96-well flat-bottom, black, fluorescent assay plates. […] After 2 hrs, quench the assay using 45 μL of PBS, and transfer 50 μL to a flat-bottom black microplate Quantify the sfGFP and mCherry signals from each well on each plate, taking 3 reads of each plate, and perform data analysis below.
(§4) In vitro transcription-translation assay data analysis: Each plate is read three times in channels for both sfGFP and mCherry signals. […]

[6] = test system: STING; assay: In vitro transcription-translation (IVTT) assay, STING reporter; details: HeLa S3 lysate, 2 hrs at 30° C.
Protocol: as §2, §3, §4

[7] = test system: JAK1; assay: In vitro transcription-translation (IVTT) assay, JAK1 reporter; details: HeLa S3 lysate, 2 hrs at 30° C.
Protocol: as §2, §3, §4

[8] = test system: NFKB1; assay: In vitro transcription-translation (IVTT) assay, NFKB1 reporter; details: HeLa S3 lysate, 2 hrs at 30° C.
Protocol: as §2, §3, §4

Measured: IC50

O=C(NCc1cccc(F)c1)O[C@@H]1[C@@H](O)CN[C@@H]1Cc1ccc(-c2cnco2)cc1 [V190545, (2R,3S,4S)-4-hydroxy-2-{[4-(1,3-oxazol-5-yl)phenyl]methyl}pyrrolidin-3-yl N-[(3-fluorophenyl)methyl]carbamate]
not listed: [8]
< 10 µM: all other assays above

O=C(NCc1ccccc1)O[C@@H]1[C@@H](O)CN[C@@H]1Cc1ccc(-c2ccc3c(c2)CNC3)cc1 [V188347, (2R,3S,4S)-2-{[4-(2,3-dihydro-1H-isoindol-5-yl)phenyl]methyl}-4-hydroxypyrrolidin-3-yl N-benzylcarbamate]
< 10 µM: all assays above

From US20250129021A1, “SMALL MOLECULE PROTEIN SYNTHESIS MODULATORS” (Interdict Bio, Inc., priority 2023, published 2025)
